Measurements published in patent US20040071967A1, “Microcapsule containing phase-change material and nucleating agent” (priority 2000, published 2004).
Like-named read-outs stand apart in the source and are kept apart here.

Tests used:
Type in all cases: physicochemical
[1] = Dynamic surface tension of aqueous solutions, maximum bubble pressure method; settings: for γ (0.1% solution) 1 b/s / γ (0.1% solution) 6 b/s / limiting γ 0.1 b/s / limiting γ 20 b/s / pC20: Tables 5 and 6; for limiting γ 0.1 b/s / limiting γ 20 b/s: lowest surface tension in water; for pC20: negative logarithm of molar concentration giving 52.1 dyne/cm at 0.1 b/s
Method: In practical terms, high bubble rates correspond to high printing speeds in lithographic printing, high spray or roller velocities in coating applications, and rapid application rates for agricultural products. […] This value is a measure of the efficiency of a surfactant. […] The critical aggregation concentrations (solubility limit or critical micelle concentration) were determined by intersection of the linear portion of a surface tension/In concentration curve with the limiting surface tension as is described in many textbooks. The limiting surface tensions at 0.1 and 20 bubbles/second (b/s) represent the lowest surface tensions in water which can be achieved at the given surface creation rate for a given surfactant regardless of the amount of surfactant used. These values give information about the relative ability to a surfactant to reduce surface defects under near-equilibrium condition (0.1 b/s) through very dynamic conditions (20 b/s). Lower surface tensions would allow the elimination of defects upon application of a formulation onto lower energy surfaces.

[2] = Critical aggregation concentration (solubility limit or critical micelle concentration)
Method: The critical aggregation concentrations (solubility limit or critical micelle concentration) were determined by intersection of the linear portion of a surface tension/In concentration curve with the limiting surface tension as is described in many textbooks. The limiting surface tensions at 0.1 and 20 bubbles/second (b/s) represent the lowest surface tensions in water which can be achieved at the given surface creation rate for a given surfactant regardless of the amount of surfactant used. These values give information about the relative ability to a surfactant to reduce surface defects under near-equilibrium condition (0.1 b/s) through very dynamic conditions (20 b/s). Lower surface tensions would allow the elimination of defects upon application of a formulation onto lower energy surfaces.

[3] = Ross-Miles foam test based upon ASTM D 1173-53, 0.1 wt % solution; settings: Tables 5 and 6; for RM Foam initial: initial foam height
Method: The foam height is measured at the completion of the addition (“Initial Foam Height”) and the time required for the foam to dissipate is recorded (“Time to 0 Foam”). This test provides a comparison between the foaming characteristics of various surfactant solutions. In general, in coatings, inks, and agricultural formulations, foam is undesirable because is complicates handling and can lead to coating and print defects, and to inefficient application of agricultural materials.

## 3.5 mole ethoxylate of 2,4,7,9-tetramethyl-5-decyne-4,7-diol capped with 2 moles of propylene oxide [Example 3]
[1]; 1 b/s
  γ (0.1% solution) 1 b/s: 33.6 dyne/cm
[1]; 6 b/s
  γ (0.1% solution) 6 b/s: 36.6 dyne/cm
[1]; 0.1 b/s
  limiting γ 0.1 b/s: 29.3 dyne/cm
[1]; 20 b/s
  limiting γ 20 b/s: 31.4 dyne/cm
[1]
  pC20: 4.07
[2]
  Sol Limit: 0.21 wt %
[3]
  RM Foam initial: 1.0 cm
[3]; time to 0 foam
  RM Foam (t to 0): (10 s)

## 10 mole EO/2 mole PO block derivative of 2,4,7,9-tetramethyl-5-decyne-4,7-diol [Example 5]
[1]; 1 b/s
  γ (0.1% solution) 1 b/s: 42.0 dyne/cm
[1]; 6 b/s
  γ (0.1% solution) 6 b/s: 44.3 dyne/cm
[1]; 0.1 wt % in distilled water, 0.1 b/s
  Dynamic Surface Tension: 40.5 dyne/cm
[1]; 0.1 wt % in distilled water, 1 b/s
  Dynamic Surface Tension: 42.0 dyne/cm
[1]; 0.1 wt % in distilled water, 6 b/s
  Dynamic Surface Tension: 44.3 dyne/cm
[1]; 0.1 wt % in distilled water, 15 b/s
  Dynamic Surface Tension: 47.1 dyne/cm
[1]; 0.1 wt % in distilled water, 20 b/s
  Dynamic Surface Tension: 48.1 dyne/cm
[1]; 0.5 wt % in distilled water, 0.1 b/s
  Dynamic Surface Tension: 32.4 dyne/cm
[1]; 0.5 wt % in distilled water, 1 b/s
  Dynamic Surface Tension: 33.6 dyne/cm
[1]; 0.5 wt % in distilled water, 6 b/s
  Dynamic Surface Tension: 35.1 dyne/cm
[1]; 0.5 wt % in distilled water, 15 b/s
  Dynamic Surface Tension: 36.6 dyne/cm
[1]; 0.5 wt % in distilled water, 20 b/s
  Dynamic Surface Tension: 37.2 dyne/cm
[1]; 1.0 wt % in distilled water, 0.1 b/s
  Dynamic Surface Tension: 29.8 dyne/cm
[1]; 1.0 wt % in distilled water, 1 b/s
  Dynamic Surface Tension: 30.5 dyne/cm
[1]; 1.0 wt % in distilled water, 6 b/s
  Dynamic Surface Tension: 32.1 dyne/cm
[1]; 1.0 wt % in distilled water, 15 b/s
  Dynamic Surface Tension: 33.0 dyne/cm
[1]; 1.0 wt % in distilled water, 20 b/s
  Dynamic Surface Tension: 33.7 dyne/cm
[1]; 0.1 b/s
  limiting γ 0.1 b/s: 29.8 dyne/cm
[1]; 20 b/s
  limiting γ 20 b/s: 33.7 dyne/cm
[1]
  pC20: 4.05
[2]; water, Tables 5 and 6, unit printed only in Table 7 footnote
  Sol Limit: (0.78) wt %
[3]; cm after 5 minutes
  RM Foam (foam height remaining): (1.3) cm
[3]
  RM Foam initial: 2.1 cm
